Results on 82 compounds are retold here after patent US8802678B2, “Carbonylated (aza) cyclohexanes as dopamine D3 receptor ligands” (Bioprojet, priority 2006, dated 2014).

A word on the melting point: it is the temperature, or range, at which the solid turns liquid.

Turning to `CCC(=O)C(=O)N1CCC(CCN2CCN(c3cccc(C(F)(F)F)c3)CC2)CC1.Cl`, the melting point was 148 °C. For `N#CCC(=O)N[C@H]1CC[C@H](CCN2CC=C(c3ccccc3F)CC2)CC1`, the melting point is 156 °C.

In the case of `N#CCC(=O)N[C@H]1CC[C@H](CCN2CC=C(c3ccccc3)CC2)CC1`, the melting point was found to be 203 °C. With `CC(C)OCC(=O)N[C@H]1CC[C@H](CCN2CCN(c3cccc(F)c3F)CC2)CC1.Cl` the figure was 215 °C. With `COc1ccc(Cl)cc1N1CCN(CCC2CCN(CC(C)=O)CC2)CC1.Cl.Cl` the figure was 275 °C. To `Cl.N#CCCC(=O)N[C@H]1CC[C@H](CCN2CCN(c3cccc(C(F)(F)F)c3)CC2)CC1` belongs 230 °C.

As for `CCOCC(=O)N1CCC(CCN2CCN(c3cccc(C(F)(F)F)c3)CC2)CC1.Cl`, the melting point came to 145 °C. To `Cl.N#CCCCC(=O)N1CCC(CCN2CCN(c3cccc(C(F)(F)F)c3)CC2)CC1` belongs 95 °C. To `CC(=O)CN1CCC(CCN2CC=C(c3cccc(Cl)c3Cl)CC2)CC1.Cl.Cl` belongs 296 to 297 °C. For `CCc1cccc(N2CCN(CC[C@H]3CC[C@H](NC(=O)CCCC#N)CC3)CC2)c1.Cl`, the melting point came out at 205 °C. With `Cl.Cl.NC(=O)CN1CCC(CCN2CCN(c3cccc(C(F)(F)F)c3)CC2)CC1` the figure was 120 °C; with `CC(=O)CN1CCC(CCN2CCN(c3cc(F)cc(F)c3)CC2)CC1.Cl.Cl`, 260 °C. Consider `CC(=O)CN1CCC(CCN2CCN(c3cc(C)ccc3Cl)CC2)CC1.Cl.Cl`, for which the melting point came to 283 °C. To `CC(=O)CN1CCC(CCN2CCN(c3cccc(C(F)(F)F)c3C)CC2)CC1.Cl.Cl` belongs 300 °C; to `CC(=O)CN1CCC(CCN2CCN(c3cc(F)ccc3C)CC2)CC1.Cl.Cl`, 281 °C.

As for `CC(=O)CN1CCC(CCN2CC=C(c3cccc(C(F)(F)F)c3)CC2)CC1.Cl.Cl`, the melting point stood at 268 °C.

Compound `CCc1cccc(C2=CCN(CC[C@H]3CC[C@H](NC(=O)CCCC#N)CC3)CC2)c1` had a melting point of 147 °C.

`Cl.Cl.O=C(CN1CCC(CCN2CCN(c3cccc(C(F)(F)F)c3)CC2)CC1)c1ccc(F)c(F)c1` registered a melting point of 220 °C. In the case of `CC(=O)CCCN1CCC(CCN2CCN(c3cccc(C(F)(F)F)c3)CC2)CC1.Cl.Cl`, the melting point turned out to be 315 °C. To `CC(=O)CN1CCC(CCN2CCN(c3cccc4cccnc34)CC2)CC1.Cl.Cl` belongs 270 °C; to `CCCc1cccc(N2CCN(CCC3CCN(CC(C)=O)CC3)CC2)c1.Cl.Cl`, 256 °C. To `CC(=O)CN1CCC(CCN2CCN(c3cccc(F)c3F)CC2)CC1.Cl.Cl` belongs 270 °C; to `N#CCC(=O)N[C@H]1CC[C@H](CCN2CC=C(c3ccc(F)cc3)CC2)CC1`, 202 °C.

Take `CC(=O)CN1CCC(CCN2CCN(c3cc(C)c(F)cc3Cl)CC2)CC1.Cl.Cl`: the melting point was found to be 344 °C.

`CC(=O)CN1CCC(CCN2CCN(c3cc(C)cc(Cl)c3)CC2)CC1.Cl.Cl`: the melting point is 300 °C. With `CC(=O)CN1CCC(CCN2CCN(c3cccc(F)c3)CC2)CC1.Cl.Cl` the figure was 268 °C; with `CCOc1cccc(N2CCN(CCC3CCN(CC(C)=O)CC3)CC2)c1.Cl.Cl`, 246 °C; with `COc1cc(N2CCN(CCC3CCN(CC(C)=O)CC3)CC2)cc(C(F)(F)F)c1.Cl.Cl`, 277 to 278 °C. In turn, `CC(=O)CN1CCC(CCN2CCN(c3ccc(Cl)cc3F)CC2)CC1.Cl.Cl` displayed a melting point of 206 °C.

`CC(=O)CN1CCC(CCN2CCN(c3ccc(C(F)(F)F)cc3F)CC2)CC1.Cl.Cl` showed a melting point of 278 to 279 °C. To `CCOCC(=O)N[C@H]1CC[C@H](CCN2CCN(c3ccc(C)c(Cl)c3)CC2)CC1.Cl` belongs 162 °C. With `CCOCC(=O)N[C@H]1CC[C@H](CCN2CC=C(c3ccc(F)cc3)CC2)CC1` the figure was 122 °C. With `CC(=O)CN1CCC(CCN2CCN(c3ccc(Cl)c(Cl)c3F)CC2)CC1.Cl.Cl` the figure was 230 °C.

`CC(=O)CN1CCC(CCN2CCN(c3cc(C(F)(F)F)ccc3F)CC2)CC1.Cl.Cl` yielded a melting point of 230 °C.

`CC(=O)CN1CCC(CCN2CCN(c3ccc4c(c3)CCC4)CC2)CC1.Cl.Cl` came in with a melting point of 291 °C. To `N#CCCCC(=O)N[C@H]1CC[C@H](CCN2CC=C(c3ccc(C(F)(F)F)cc3)CC2)CC1` belongs 185 °C. Compound `CC(=O)CN1CCC(CCN2CCN(c3cccc4c3OCCCO4)CC2)CC1.Cl.Cl` gave a melting point of 280 °C. With `CC(=O)CN1CCC(CCN2CCN(c3cccc(C(C)(F)F)c3)CC2)CC1.Cl.Cl` the figure was 256 °C; with `CC(=O)CN1CCC(CCN2CC=C(c3ccc(Cl)cc3)CC2)CC1`, 101 °C; with `CC(=O)CN1CCC(CCN2CCN(c3ccc(C#N)cc3)CC2)CC1.Cl.Cl`, 295 °C. With `CC(=O)CN1CCC(CCN2CC=C(c3ccc(F)cc3)CC2)CC1` the figure was 72 °C. To `CC(=O)CN1CCC(CCN2CCN(c3cc(Cl)ccc3Cl)CC2)CC1.Cl.Cl` belongs 172 °C; to `CC(=O)CN1CCC(CCN2CC=C(c3cccc4c3CCC4)CC2)CC1.Cl.Cl`, 291 °C. With `CC(=O)CN1CCC(CCN2CCN(c3cccc(S(C)(=O)=O)c3)CC2)CC1.Cl.Cl`, the melting point was 260 °C. To `CC(=O)CN1CCC(CCN2CC=C(c3ccccc3)CC2)CC1` belongs 80 °C. Consider `CC(=O)CN1CCC(CCN2CCN(c3ccc(C)c(F)c3)CC2)CC1.Cl.Cl`, for which the melting point came out at 276 °C. To `CC(=O)CN1CCC(CCN2CCN(c3ccc(Cl)c(C(F)(F)F)c3)CC2)CC1.Cl.Cl` belongs 263 °C; to `CC(=O)CN1CCC(CCN2CCN(c3cccc(-c4ccccc4)c3)CC2)CC1.Cl.Cl`, 235 °C. Take `CC(=O)CN1CCC(CCN2CCN(c3ccc(F)cc3C)CC2)CC1.Cl.Cl`: the melting point was 283 °C.

In the case of `CC(=O)CN1CCC(CCN2CCC(c3cccc4c3CCC4)CC2)CC1.Cl.Cl`, the melting point amounted to 339 °C. `COc1ccc(C(F)(F)F)cc1N1CCN(CCC2CCN(CC(C)=O)CC2)CC1.Cl.Cl` yielded a melting point of 260 °C. To `CCCC(=O)CN1CCC(CCN2CCN(c3cccc4c3CCC4)CC2)CC1.Cl.Cl` belongs 270 °C; to `CC(=O)CN1CCC(CCN2CCN(c3c(C)cccc3C)CC2)CC1.Cl.Cl`, 249 °C; to `COc1ccc(Cl)c(N2CCN(CCC3CCN(CC(C)=O)CC3)CC2)c1.Cl.Cl`, 263 °C. With `CC(=O)CN1CCC(CCN2CCN(c3cccc4c3CCCCC4)CC2)CC1.Cl.Cl` the figure was 300 °C. With `CC(=O)CN1CCC(CCN2CCN(c3cc(F)cc(C(F)(F)F)c3)CC2)CC1.Cl.Cl` the figure was 295 °C; with `CC(=O)CN1CCC(CCN2CCN(c3cccc(Oc4ccccc4)c3)CC2)CC1.Cl.Cl`, 241 °C; with `CC(=O)CN1CCC(CCN2CCN(c3ccccc3C(F)(F)F)CC2)CC1.Cl.Cl`, 290 °C. The compound `CC(=O)CN1CCC(CCN2CCN(c3ccc(Cl)cc3)CC2)CC1.Cl.Cl` gave a melting point of 277 °C. Regarding `CC(=O)CN1CCC(CCN2CCN(c3cccc(C(C)C)c3)CC2)CC1.Cl.Cl`, the melting point turned out to be 252 °C.

For `Cl.N#CCCCC(=O)N1CCC(CCN2CCN(c3cccc4c3CCC4)CC2)CC1`, the melting point is 210 °C.

Compound `CC(=O)CN1CCC(CCN2CCN(c3cc(Cl)ccc3F)CC2)CC1.Cl.Cl` registered a melting point of 270 °C. To `COCc1cccc(N2CCN(CCC3CCN(CC(C)=O)CC3)CC2)c1.Cl.Cl` belongs 255 °C; to `CC(=O)CN1CCC(CCN2CCN(c3cc(Cl)c(Cl)cc3Cl)CC2)CC1.Cl.Cl`, 261 °C; to `Cl.N#CCCC(=O)N1CCC(CCN2CCN(c3cc(Cl)cc(C(F)(F)F)c3)CC2)CC1`, 128 °C. With `CC(=O)CN1CCC(CCN2CCN(c3cc(Cl)ccc3C)CC2)CC1.Cl.Cl` the figure was 259 °C; with `Cc1cccc(C2=CCN(CC[C@H]3CC[C@H](NC(=O)C4=CCCC4)CC3)CC2)c1C#N`, 183 °C.

The compound `CC(=O)CN1CCC(CCN2CC=C(c3cc(F)cc(C(F)(F)F)c3)CC2)CC1.Cl.Cl` returned a melting point of 287 °C. With `N#CCC(=O)N[C@H]1CC[C@H](CCN2CC=C(c3cc(F)cc(C(F)(F)F)c3)CC2)CC1` the figure was 163 °C; with `N#CCCCC(=O)N[C@H]1CC[C@H](CCN2CC=C(c3cc(F)cc(C(F)(F)F)c3)CC2)CC1`, 114 °C; with `CC(=O)CN1CCC(CCN2CCN(c3ccc(Cl)c(Cl)c3Cl)CC2)CC1.Cl.Cl`, 275 °C.

`Cl.O=C(CC(F)(F)F)N1CCC(CCN2CCN(c3cccc4c3CCC4)CC2)CC1` yielded a melting point of 206 °C. `Cc1ccccc1C1=CCN(CC[C@H]2CC[C@H](NC(=O)CCCC#N)CC2)CC1` had a melting point of 140 °C. `CC(=O)CN1CCC(CCN2CCN(c3ccccc3CC(C)C)CC2)CC1.Cl.Cl` showed a melting point of 285 °C. `COCC(=O)N[C@H]1CC[C@H](CCN2CC=C(c3cccc(C#N)c3)CC2)CC1` displayed a melting point of 117 °C. With `N#Cc1cccc(C2=CCN(CC[C@H]3CC[C@H](NC(=O)CCC(F)(F)F)CC3)CC2)c1` the figure was 177 °C; with `CC(=O)CN1CCC(CCN2CCN(c3cc(Cl)c(Cl)cc3F)CC2)CC1.Cl.Cl`, 309 °C (dec.). In turn, `CC(=O)CN1CCC(CCN2CCN(c3cccc(Cl)c3C)CC2)CC1.Cl.Cl` came in with a melting point of 320 to 325 °C. To `CC(C)(C)OC(=O)N1CCC(CCN2CCN(c3cccc(C(F)(F)F)c3)CC2)CC1.Cl` belongs 188 °C; to `COCCCC(=O)N[C@H]1CC[C@H](CCN2CC=C(c3cccc(C(F)(F)F)c3)CC2)CC1`, 145 °C. To `CCOCC(=O)N[C@H]1CC[C@H](CCN2CC=C(c3cccc(C(F)(F)F)c3)CC2)CC1` belongs 75 °C; to `CC(=O)CN1CCC(CCN2CCN(c3ccccc3F)CC2)CC1.Cl.Cl`, 250 °C.
